From PMC12028158, “Synthesis and In Vitro Evaluation of the Anticancer Effect of Novel Phosphonium Vindoline Derivatives” (International Journal of Molecular Sciences, 2025)

Legend:
Format in all cases: cell-based
SNB-19 = assay: NCI60 five-dose screen; conditions: Homo sapiens, SNB-19, SNB-19, CNS Cancer, five-dose; read-out: GI50
SK-MEL-28 = assay: NCI60 one-dose screen; conditions: Homo sapiens; SK-MEL-28, 10 μM, one-dose; read-out: Growth percent
MCF7 = assay: NCI60 five-dose screen; conditions: Homo sapiens, MCF7, MCF7, Breast Cancer, five-dose; read-out: GI50
TK-10 [1] = assay: NCI60 five-dose screen; conditions: Homo sapiens; TK-10, Renal Cancer, five-dose; read-out: GI50
T-47D [2] = assay: NCI60 five-dose screen; conditions: Homo sapiens, T47D; T-47D, Breast Cancer, five-dose; read-out: GI50
OVCAR-5 [3] = assay: NCI60 five-dose screen; conditions: Homo sapiens; OVCAR-5, Ovarian Cancer, five-dose; read-out: GI50
HCT-116 = assay: NCI60 one-dose screen; conditions: Homo sapiens; HCT-116, 10 μM, one-dose; read-out: Growth percent
NCI-H322M = assay: NCI60 five-dose screen; conditions: Homo sapiens, Non-small Cell Lung Cancer, five-dose, read-out: GI50
TK-10 [4] = assay: NCI60 one-dose screen; conditions: Homo sapiens; TK-10, 10 μM, one-dose; read-out: Growth percent
RPMI-8226 = assay: NCI60 one-dose screen; conditions: Homo sapiens; RPMI-8226, 10 μM, one-dose; read-out: Growth percent
LOX IMVI = assay: NCI60 five-dose screen; conditions: Homo sapiens, Melanoma, five-dose, read-out: GI50
MDA-MB-468 [5] = assay: NCI60 one-dose screen; conditions: Homo sapiens; MDA-MB-468, 10 μM, one-dose; read-out: Growth percent
HT29 = assay: NCI60 one-dose screen; conditions: Homo sapiens, HT-29; HT29, 10 μM, one-dose; read-out: Growth percent
M14 = assay: NCI60 one-dose screen; conditions: Homo sapiens; M14, 10 μM, one-dose; read-out: Growth percent
CAKI-1 = assay: NCI60 one-dose screen; conditions: Homo sapiens; CAKI-1, 10 μM, one-dose; read-out: Growth percent
U251 [6] = assay: NCI60 five-dose screen; conditions: Homo sapiens, U-251, U251, CNS Cancer, five-dose; read-out: GI50
T-47D [7] = assay: NCI60 one-dose screen; conditions: Homo sapiens, T47D; T-47D, 10 μM, one-dose; read-out: Growth percent
NCI-H522 = assay: NCI60 one-dose screen; conditions: Homo sapiens; NCI-H522, 10 μM, one-dose; read-out: Growth percent
SNB-75 = assay: NCI60 one-dose screen; conditions: Homo sapiens; SNB-75, 10 μM, one-dose; read-out: Growth percent
ACHN [8] = assay: NCI60 five-dose screen; conditions: Homo sapiens, Renal Cancer, five-dose, read-out: GI50
UACC-257 [9] = assay: NCI60 one-dose screen; conditions: Homo sapiens; UACC-257, 10 μM, one-dose; read-out: Growth percent
HS 578T = assay: NCI60 one-dose screen; conditions: Homo sapiens; HS 578T, 10 μM, one-dose; read-out: Growth percent
NCI-H226 = assay: NCI60 one-dose screen; conditions: Homo sapiens; NCI-H226, 10 μM, one-dose; read-out: Growth percent
Colon Cancer panel = assay: NCI60 five-dose screen, panel mean; conditions: Homo sapiens; mean over Colon Cancer panel; read-out: Mean GI50
Ovarian Cancer panel = assay: NCI60 five-dose screen, panel mean; conditions: Homo sapiens; mean over Ovarian Cancer panel; read-out: Mean GI50
UO-31 = assay: NCI60 one-dose screen; conditions: Homo sapiens; UO-31, 10 μM, one-dose; read-out: Growth percent
ACHN [10] = assay: NCI60 one-dose screen; conditions: Homo sapiens, 10 μM, one-dose, read-out: Growth percent
HOP-62 [11] = assay: NCI60 one-dose screen; conditions: Homo sapiens; HOP-62, 10 μM, one-dose; read-out: Growth percent
[12] = tested on: Non-small Cell Lung Cancer panel; assay: NCI60 five-dose screen, panel mean; conditions: Homo sapiens; mean over Non-small Cell Lung Cancer panel; read-out: Mean GI50
A549/ATCC = assay: NCI60 five-dose screen; conditions: Homo sapiens; A549/ATCC, Non-small Cell Lung Cancer, five-dose; read-out: GI50
CCRF-CEM = assay: NCI60 five-dose screen; conditions: Homo sapiens, Leukemia, five-dose, read-out: GI50
NCI-H460 = assay: NCI60 five-dose screen; conditions: Homo sapiens; NCI-H460, Non-small Cell Lung Cancer, five-dose; read-out: GI50
UACC-257 [13] = assay: NCI60 five-dose screen; conditions: Homo sapiens, UACC-257, UACC-257, Melanoma, five-dose; read-out: GI50
OVCAR-5 [14] = assay: NCI60 one-dose screen; conditions: Homo sapiens; OVCAR-5, 10 μM, one-dose; read-out: Growth percent
U251 [15] = assay: NCI60 one-dose screen; conditions: Homo sapiens, U-251; U251, 10 μM, one-dose; read-out: Growth percent
Renal Cancer panel = assay: NCI60 five-dose screen, panel mean; conditions: Homo sapiens; mean over Renal Cancer panel; read-out: Mean GI50
KM12 = assay: NCI60 five-dose screen; conditions: Homo sapiens, KM12, KM12, Colon Cancer, five-dose; read-out: GI50
DU-145 = assay: NCI60 one-dose screen; conditions: Homo sapiens; DU-145, 10 μM, one-dose; read-out: Growth percent
SW-620 = assay: NCI60 five-dose screen; conditions: Homo sapiens; SW-620, Colon Cancer, five-dose; read-out: GI50
HOP-62 [16] = assay: NCI60 five-dose screen; conditions: Homo sapiens; HOP-62, Non-small Cell Lung Cancer, five-dose; read-out: GI50
COLO 205 [17] = assay: NCI60 one-dose screen; conditions: Homo sapiens; COLO 205, 10 μM, one-dose; read-out: Growth percent
SF-268 = assay: NCI60 one-dose screen; conditions: Homo sapiens; SF-268, 10 μM, one-dose; read-out: Growth percent
MOLT-4 = assay: NCI60 five-dose screen; conditions: Homo sapiens; MOLT-4, Leukemia, five-dose; read-out: GI50
MDA-MB-468 [18] = assay: NCI60 five-dose screen; conditions: Homo sapiens, MDA-MB-468, MDA-MB-468, Breast Cancer, five-dose; read-out: GI50
SF-295 = assay: NCI60 one-dose screen; conditions: Homo sapiens; SF-295, 10 μM, one-dose; read-out: Growth percent
COLO 205 [19] = assay: NCI60 five-dose screen; conditions: Homo sapiens, COLO 205, COLO 205, Colon Cancer, five-dose; read-out: GI50

## CC[C@]12C=CCN3CC[C@@]4(c5ccc(OC)cc5N(C)[C@H]4[C@@](O)(C(=O)OC)[C@@H]1OC(=O)CCC[P+](c1ccc(OC)cc1)(c1ccc(OC)cc1)c1ccc(OC)cc1)[C@@H]32 [9b]
SNB-19
  GI50: 391 nM
SK-MEL-28
  activity at 10 µM: -96.3%
MCF7
  GI50: 383 nM
TK-10 [1]
  GI50: 1510 nM
T-47D [2]
  GI50: 353 nM
OVCAR-5 [3]
  GI50: 1770 nM
HCT-116
  activity at 10 µM: -68.8%
NCI-H322M
  GI50: 2860 nM
TK-10 [4]
  activity at 10 µM: -90.7%
RPMI-8226
  activity at 10 µM: -45.5%
LOX IMVI
  GI50: 614 nM
MDA-MB-468 [5]
  activity at 10 µM: -92.1%
HT29
  activity at 10 µM: -84.3%
M14
  activity at 10 µM: -88.4%
CAKI-1
  activity at 10 µM: -93.3%
U251 [6]
  GI50: 360 nM
T-47D [7]
  activity at 10 µM: -61.4%
NCI-H522
  activity at 10 µM: -89.4%
SNB-75
  activity at 10 µM: -34%
ACHN [8]
  GI50: 458 nM
UACC-257 [9]
  activity at 10 µM: -93.5%
HS 578T
  activity at 10 µM: -65.4%
NCI-H226
  activity at 10 µM: -80.3%
Colon Cancer panel
  GI50: 980 nM
Ovarian Cancer panel
  GI50: 3460 nM
UO-31
  activity at 10 µM: -56.8%
ACHN [10]
  activity at 10 µM: -95.8%
HOP-62 [11]
  activity at 10 µM: -81.5%
[12]
  GI50: 1090 nM
A549/ATCC
  GI50: 731 nM
CCRF-CEM
  GI50: 887 nM
NCI-H460
  GI50: 666 nM
UACC-257 [13]
  GI50: 646 nM
OVCAR-5 [14]
  activity at 10 µM: -96.5%
U251 [15]
  activity at 10 µM: -93.7%
Renal Cancer panel
  GI50: 3010 nM
KM12
  GI50: 628 nM
DU-145
  activity at 10 µM: -75.4%
SW-620
  GI50: 844 nM
HOP-62 [16]
  GI50: 1660 nM
COLO 205 [17]
  activity at 10 µM: -64.4%
SF-268
  activity at 10 µM: -34.3%
MOLT-4
  GI50: 933 nM
MDA-MB-468 [18]
  GI50: 241 nM
SF-295
  activity at 10 µM: -93.7%
COLO 205 [19]
  GI50: 194 nM
